{"source": "patent US11439646B2", "about": "“Anti-proliferative agents for treating PAH” (Pfizer Inc., priority 2016, dated 2022)", "system": "human primary PASMCs", "experiment": "BrdU cell proliferation assay, human primary PASMCs", "format": "cell-based", "conditions": "PASMC", "method": "Cell proliferation assay. Primary PASMCs and PAAFs from normal human subjects (ScienCell Research Laboratories, San Diego, Calif., USA) and rat primary PASMCs (Cell Applications, San Diego, Calif., USA) were plated in CellBIND® 96-well plates in Dulbecco's modification of Eagle's medium (DMEM) containing 5% fetal bovine serum (FBS), and serum-starved for 24 h in DMEM containing 0.1% FBS. Cells were first pre-incubated with different concentrations of palbociclib (in triplicates) for 30 minutes, and then 30 ng/ml PDGF-BB or 5% FBS was added to stimulate cell proliferation. Cells were maintained for 48 h before the proliferation rate was evaluated using the Cell Proliferation ELISA BrdU (bromodeoxyuridine) Luminescence Kit (Roche Diagnostics, Mannheim, Germany). BrdU was added to the medium 16 h before the quantification of BrdU incorporation. This procedure was use to generate data as presented in at least FIGS. 1a, 1b, 1c, and 1d. IC50 values were calculated for any given inhibitor by determining the concentration of compound needed to inhibit 50% of the response applied to the system. IC50 values were derived from the four parameter logistic equation which was fit to the compound concentration response data.", "note": "pIC50: −log10 of the molar value. Read-outs that look alike come from different tables or passages of the source.", "data": [{"smiles": "CC(=O)c1c(C)c2cnc(Nc3ccc(N4CCNCC4)cn3)nc2n(C2CCCC2)c1=O", "note": "[Palbociclib, 6-acetyl-8-cyclopentyl-5-methyl-2-{[5-(piperazin-1-yl)pyridin-2yl]amino}pyrido[2,3-d]pyrimidin-7(8H)-one]", "values": [{"measurement": "pIC50", "setting": "30 ng/ml PDGF-BB, average of 3, FIG. 1a, read-out: IC50, PDGF-BB induced proliferation of human primary PASMCs", "value": 8.13}, {"measurement": "pIC50", "setting": "5% FBS, average of 3, FIG. 1b, read-out: IC50, proliferation of human primary PASMCs induced by 5% FBS", "value": 8.13}]}]}
